Source: patent US8048915B2, “Biologically active complex” (BioMas Ltd., priority 2001, dated 2011)
Several values for one entry are separate records, joined by “and”; a condition that tells them apart may be missing. Equal entries are not always repeated. Where two headings read alike, the source gives them in different places.

What was measured:
IL-2 [1] = conditions: 10^7 viable cells/ml
Experimental: (§1) Spleens were removed from 15, male Balb-c mice 6 to 8 weeks of age. The spleen cells were pushed through stainless steel 60 mesh (U.S. Standard) nets resting in 5 mm Petri dishes containing PBS in order to separate the cells. The cells were then collected into centrifuge tubes and spun at 1000 rpm for 10 minutes. The supernatant was discarded and cells were treated with 5 ml of hypotonic buffer (0.15M NH4Cl; 0.01M KHCO3 dissolved in double distilled water, pH 7.2) for exactly two minutes. Thereafter, PBS was added to the cells and the test tubes were centrifuged for 10 minutes at 1000 rpm. The cells were rinsed twice and counted in a hemocytometer using trypan blue to test for viability. The cells were brought to a concentration of 10^7viable cells/ml.

[2] = tested on: colony stimulating factor (CSF)
Experimental: as §1

West Nile virus (WNV) = tested on: West Nile virus (WNV)
Description: WNV is a toga virus of the flavivirus group, a positive single stranded RNA virus, which when injected IP to mice usually kills them within 5-8 days as a result of extensive damage to the central nervous system.

[3] = tested on: V-mos transformed NIH-3T3 cells; assay: Colony growth of V-mos transformed NIH-3T3 cells; type: cell-based; conditions: one week; clones counted
Experimental: 5×10^2 cells were plated per 60 mm dish and incubated with different concentrations (0.005-5 μg/ml) of the complex in PBS. A week later, the cells were stained with Gimsa and clones were counted. Similar experiments were conducted using V-mos transformed NIH-3T3 cells, and also using Ph2TeCl2 and Ph3TeCl, with both types of transformed cells.

IL-2 [4] = tested on: IL-2
Experimental: The complexes were administered in these dilutions, as drinking water, to male Balb-C mice, 6-8 weeks of age over a 4 day period. The exact amount of liquid intake was recorded daily. […] The cells were incubated at a concentration of 10^7 cells/ml in enriched RPMI containing 2 μg/ml of con-A for 24 hours at 37° C. The supernatants were collected and tested for IL-2 content.

[5] = tested on: IL-2 receptors of human mononuclear cells; assay: Induction of IL-2 receptors of human mononuclear cells (proliferation with recombinant IL-2, 3H thymidine uptake); type: cell-based
Experimental: Human MNC were brought to a concentration of 10^6 cells/ml. RPMI+10% FCS. Aliquots of 0.2 ml. were placed in duplicate wells of microdishes and plates were incubated at 37° C. for 24 hrs. […] Plates were further incubated for 48 hrs and labeled with ^3H thymidine 24 hrs before harvesting. The proliferation was measured by ^3HT uptake as described by Gillis et al, J. Immunol. […] The results are expressed in counts per minute.

IL-2 receptors = assay: IL-2 receptor sites on human mononuclear cells, fluoresceinated antibody; type: cell-based; conditions: 1 μg/ml; 24 hours incubation
Experimental: This example provides an assay to detect the presence of receptor sites for IL-2. […] The cells were washed twice with PBS and then incubated with a specific fluoresceinated antibody against IL-2 receptors as described in Uchiyama et al, J. Immunol.

[6] = 5 pg (as starting material of Preparation 1)
[7] = 50 pg (as starting material of Preparation 1)
[8] = 500 pg (as starting material of Preparation 1)
[9] = 5 ng (as starting material of Preparation 1)
[10] = 50 ng (as starting material of Preparation 1)
[11] = 500 ng (as starting material of Preparation 1)
[12] = 5 μg (as starting material of Preparation 1)
[13] = 50 μg (as starting material of Preparation 1)
[14] = 1 μg/ml H2O as drinking water over 4 days
[15] = 10 μg/ml H2O as drinking water over 4 days

Cl[Te]1(Cl)(Cl)OCCO1.N [Example 1, equimolar complex of TeO2 and ethylene glycol, NH4Cl salt]
IL-2 (IL-2 [1]; [6]): 12,000 cpm | IL-2 (IL-2 [1]; [7]): 38,000 cpm | IL-2 (IL-2 [1]; [8]): 30,000 cpm | IL-2 (IL-2 [1]; [9]): 15,000 cpm | IL-2 (IL-2 [1]; [10]): 6,000 cpm | IL-2 (IL-2 [1]; [11]): 5,000 cpm | IL-2 (IL-2 [1]; [12]): 5,000 cpm | IL-2 (IL-2 [1]; [13]): 5,000 cpm | CSF [2, 6]: 140 colonies/dish | CSF [2, 7]: 260 colonies/dish | CSF [2, 8]: 175 colonies/dish | CSF [2, 9]: 120 colonies/dish | CSF [2, 10]: 75 colonies/dish | CSF [2, 11]: 25 colonies/dish | CSF [2, 12]: 5 colonies/dish | CSF [2, 13]: 2 colonies/dish | susceptibility of West Nile virus infections in mice (West Nile virus (WNV); mouse, in vivo): susceptible | # Alive/Total (West Nile virus (WNV); mouse, in vivo, ip): 3/5 | fate of the three survivors after day 8 (West Nile virus (WNV); second experiment, 10^3 IPLD50 virus + complex): Two out of the remaining three survived an additional 8 days, whereas the third remained alive without any manifestations of clinical symptoms | inhibition of growth [3]: none of the complex, Ph2TeCl2 or Ph3TeCl inhibited the growth | IL-2 content, cpm (IL-2 [4]; [14]): 44500 cpm | Percent increase as compared to control (IL-2 [4]; [14]): +35% | IL-2 content, cpm (IL-2 [4]; [15]): 49179 cpm | Percent increase as compared to control (IL-2 [4]; [15]): +50% | inducing lymphokine production when given orally (IL-2 [4]; orally in an aqueous diluent): active | proliferation, 3HT uptake ([5]; Test A, 1 μg/ml, listed as Ex. 1): 28625 counts per minute and 27593 counts per minute | proliferation, 3HT uptake ([5]; Test A, 1 × 10^−3 μg/ml, listed as Ex. 1): 3652 counts per minute and 5055 counts per minute | proliferation, 3HT uptake ([5]; Test A, 1 × 10^−4 μg/ml, listed as Ex. 1): 3558 counts per minute and 4047 counts per minute | proliferation, 3HT uptake ([5]; Test A, 1 × 10^−5 μg/ml, listed as Ex. 1): 2474 counts per minute and 4063 counts per minute | proliferation, 3HT uptake ([5]; Test A, 5 × 10^−1 μg/ml, listed as Ex. 1): 120755 counts per minute and 105943 counts per minute | proliferation, 3HT uptake ([5]; Test A, 7 × 10^−1 μg/ml, listed as Ex. 1): 164538 counts per minute and 115195 counts per minute | proliferation, 3HT uptake ([5]; Test B, 1 μg/ml): 23488 counts per minute | proliferation, 3HT uptake ([5]; Test B, 1 × 10^−2 μg/ml): 6057 counts per minute | proliferation, 3HT uptake ([5]; Test B, 1 × 10^−3 μg/ml): 5865 counts per minute | proliferation, 3HT uptake ([5]; Test B, 1 × 10^−4 μg/ml): 4960 counts per minute | proliferation, 3HT uptake ([5]; Test B, 1 × 10^−5 μg/ml): 7155 counts per minute | proliferation, 3HT uptake ([5]; Test B, 5 × 10^−1 μg/ml): 66910 counts per minute | proliferation, 3HT uptake ([5]; Test B, 5 × 10^−2 μg/ml): 5390 counts per minute | proliferation, 3HT uptake ([5]; Test B, 7 × 10^−1 μg/ml): 17620 counts per minute | cells positive for IL-2 receptors (IL-2 receptors): 20%
